Experimental data as given in patent US20070270475A1, “4-Methoxy-Pyrrolidine-2-Carboxylic Acid Compounds and Derivatives Thereof as Hepatitis C Virus Inhibitors” (priority 2004, published 2007).
pIC50: −log10 of the molar value.

System: 11-7 cell line (NS2-5B) HCV replicon
Experiment: Replicon ELISA cell based assay, genotype 1b, 11-7 cell line (NS2-5B)
Design: species or system HCV genotype 1b
Details: Hepatitis C virus; 11-7 cell line (NS2-5B) used instead of the 5-15 cell line
Procedure: Replicon ELISA Cell Based Assay
100 μL of medium containing 10% FCS were added to each well of clear, flat-bottomed 96 well microplates, excepting wells in the top row. Test compound was diluted in assay medium to twice the final required starting concentration from a 40 mM stock solution in DMSO. 200 μL of the starting dilution were introduced into two wells each in the top row and doubling dilutions made down the plate by the sequential transfer of 100 μL aliquots with thorough mixing in the wells; the final 100 μL were discarded. The two bottom rows were not used for compound dilutions. […]
Following incubation, the assay medium was aspirated from the plates. […] The reaction was stopped by the addition of 25 μL per well of 2 M sulphuric acid and the plates were read at 490 nm on a Fluostar Optima spectrophotometer. […]
The absorbance values from all compound-free wells that had received both primary and secondary antibodies were averaged to obtain a positive control value. The mean absorbance value from the compound-free wells that had not received the primary antibody was used to provide the negative (background) control value. The readings from the duplicate wells at each compound concentration were averaged and, after the subtraction of the mean background from all values, were expressed as a percentage of the positive control signal. […]

Q: `COC[C@H]1C[C@@](CC(C)C)(C(=O)O)N(C(=O)c2ccc(C(C)(C)C)c(OC)c2)[C@H]1c1ncc(C)s1` (racemic) [Compound C, rel-(2S,4S,5R)-2-isobutyl-1-(3-methoxy-4-tert-butylbenzoyl)-4-methoxymethyl-5-(5-methyl-1,3-thiazol-2-yl)pyrrolidine-2-carboxylic acid, reference compound] was tested. Which pIC50 did it give?
A: 5.00 to 6.82
